# Data from patent publication US10456414B2, “Methods for treating HCV” (priority 2011, dated 2019).
# Like-named read-outs stand apart in the source and are kept apart here.
# Legend:
# HCV genotype 1a replicon [1] = experiment: HCV genotype 1a replicon assay, EC50 (Biological Example 3); type: cell-based; details: Hepatitis C virus, 72 h, 3 days, average ± standard deviation, read-out: EC50
# [2] = system: Huh-7 cells carrying a HCV genotype 1a replicon; experiment: HCV genotype 1a replicon assay, CC50 by calcein AM (Biological Example 3); type: cell-based; details: genotype 1a replicon cells, 3 days, read-out: CC50
# Method: The CC50 assay was performed first.
# [3] = system: 1b Huh-luc replicon cells; experiment: Antiviral combination studies with Compound 5, MacSynergy II; type: cell-based, HCV; details: in combination with Compound 5, mean ± standard deviation
# Method: Combination data were analyzed based on the Bliss Independence model using MacSynergy II software. Results of the combination assays were expressed as mean synergy and antagonism volumes (nM^2) calculated at 95% confidence from two independent experiments performed in triplicate.
# GT1b wild-type replicon = experiment: microbe, parasite or virus in culture; type: cell-based, HCV; details: Hepatitis C virus, 72 h, 3 days
# [4] = system: GT1b NS5B S282T mutant replicon; experiment: microbe, parasite or virus in culture; type: cell-based, HCV
# GT2a wild-type replicon = experiment: microbe, parasite or virus in culture; type: cell-based, HCV; details: Hepatitis C virus, 72 h, 3 days
# [5] = system: GT2a NS5B S282T mutant replicon; experiment: microbe, parasite or virus in culture; type: cell-based, HCV
# [6] = system: GT2b wild-type chimeric replicon (2b NS5B in GT1b backbone); experiment: microbe, parasite or virus in culture; type: cell-based, HCV; details: Hepatitis C virus, 72 h, read-out: EC50 WT
# [7] = system: GT2b NS5B S282T mutant chimeric replicon; experiment: microbe, parasite or virus in culture; type: cell-based, HCV
# [8] = system: GT3a wild-type chimeric replicon (3a NS5B in GT1b backbone); experiment: microbe, parasite or virus in culture; type: cell-based, HCV; details: Hepatitis C virus, 72 h, read-out: EC50 WT
# [9] = system: GT3a NS5B S282T mutant chimeric replicon; experiment: microbe, parasite or virus in culture; type: cell-based, HCV
# [10] = system: GT4a wild-type chimeric replicon (4a NS5B in GT1b backbone); experiment: microbe, parasite or virus in culture; type: cell-based, HCV; details: Hepatitis C virus, 72 h, read-out: EC50 WT
# [11] = system: GT4a NS5B S282T mutant chimeric replicon; experiment: microbe, parasite or virus in culture; type: cell-based, HCV
# [12] = Drug-drug interactions of co-administered compounds (exposure); type: in vivo; details: co-administered with Compound 2
# Method: With respect to Compounds 9 and 10, or pharmaceutically acceptable salts thereof, the composition may comprise 10 mg to 1000 mg per day (according to US 2010/0298257). With respect to Compound 11, or pharmaceutically acceptable salts thereof, the composition may comprise 1 mg to 1000 mg per day (according to US 2010/0081628).
# [13] = system: Genotype 1a replicon, NS5A M28T
# [14] = system: Genotype 1a replicon, NS5A Q30H
# [15] = system: Genotype 1a replicon, NS5A Q30R
# [16] = system: Genotype 1a replicon, NS5A Q30E
# [17] = system: Genotype 1a replicon, NS5A L31M
# [18] = system: Genotype 1a replicon, NS5A Y93C
# [19] = system: Genotype 1a replicon, NS5A Y93H
# [20] = system: Huh-7 cells carrying an HCV genotype 1a replicon; details: with 320 nM Compound 10 and the highest concentration of the listed compound
# genotype 1b replicon RNA = experiment: Replicon RNA suppression, 6 day assay, QRT-PCR
# [21] = system: Genotype 1 b replicon cells; experiment: Compound combination replicon cure assay, colony formation; details: 6 days treatment at the same concentrations, then G418 for 14 days
# HCV genotype 1a replicon [22] = experiment: HCV genotype 1a replicon assay, EC50 (Biological Example 8); details: Hepatitis C virus, 72 h
# HCV genotype 1a replicon [23] = experiment: Antiviral combination studies with Compound 4, MacSynergy II
# [24] = system: Huh-7 cells carrying a HCV genotype 1a replicon; experiment: Cytotoxicity combination studies with Compound 4, MacSynergy II
# [25] = HCV genotype 1a replicon assay, CC50 by calcein AM (Biological Example 8); details: human, Huh-7 cells carrying an HCV genotype 1a replicon
# [26] = in combination with Compound 4, mean ± standard deviation
structure (smiles),measurement,setting,value
"COC(=O)N[C@H](C(=O)N1CC2(CC2)C[C@H]1c1ncc(-c2ccc3c(c2)C(F)(F)c2cc(-c4ccc5nc([C@@H]6[C@H]7CC[C@H](C7)N6C(=O)[C@@H](NC(=O)OC)C(C)C)[nH]c5c4)ccc2-3)[nH]1)C(C)C [Compound 6, (1-{3-[6-(9,9-Difluoro-7-{2-[5-(2-methoxycarbonylamino-3-methyl-butyryl)-5-aza-spiro[2.4]hept-6-yl]-3H-imidazol-4-yl}-9H-fluoren-2-yl)-1H-benzoimidazol-2-yl]-2-aza-bicyclo[2.2.1]heptane-2-carbonyl}-2-methyl-propyl)-carbamic acid methyl ester]",EC50,HCV genotype 1a replicon [1],0.033 ± 0.011 nM
same,CC50,[2],> 44400 nM
same,Antagonism Volume,[3],0 ± 0 nM^2
same,Synergy Volume,[3],34 ± 19 nM^2
same,EC50,GT1b wild-type replicon,0.5 nM
same,Fold change,"[4]; GT1b, S282T EC50 versus corresponding wild type",0.8
same,EC50,"[4]; Hepatitis C virus, GT1B, 72 h, read-out: EC50 S282T",0.4 nM
same,EC50,GT2a wild-type replicon,5160 nM
same,Fold change,"[5]; GT2a, S282T EC50 versus corresponding wild type",0.5
same,EC50,"[5]; Hepatitis C virus, GT2A, 72 h, read-out: EC50 S282T",2340 nM
same,EC50,[6],0.5 nM
same,Fold change,"[7]; GT2b, S282T EC50 versus corresponding wild type",0.9
same,EC50,"[7]; Hepatitis C virus, GT2B, 72 h, read-out: EC50 S282T",0.5 nM
same,EC50,[8],0.4 nM
same,Fold change,"[9]; GT3a, S282T EC50 versus corresponding wild type",0.6
same,EC50,"[9]; Hepatitis C virus, GT3A, 72 h, read-out: EC50 S282T",0.2 nM
same,EC50,[10],0.5 nM
same,Fold change,"[11]; GT4a, S282T EC50 versus corresponding wild type",0.8
same,EC50,"[11]; Hepatitis C virus, GT4A, 72 h, read-out: EC50 S282T",0.4 nM
same,increase of exposure of Compound 6 by Compound 2,[12],approximately 5 ×
same,Fold Shift in EC50 (DRM EC50/1a-H77 EC50),[13],25
same,Fold Shift in EC50 (DRM EC50/1a-H77 EC50),[14],73
same,Fold Shift in EC50 (DRM EC50/1a-H77 EC50),[15],170
same,Fold Shift in EC50 (DRM EC50/1a-H77 EC50),[16],997
same,Fold Shift in EC50 (DRM EC50/1a-H77 EC50),[17],140
same,Fold Shift in EC50 (DRM EC50/1a-H77 EC50),[18],327
same,Fold Shift in EC50 (DRM EC50/1a-H77 EC50),[19],3029
same,Cytotoxicity at Highest Concentration of Compound Combinations (% inhibition on cell growth),[20],5.0 ± 5.0%
same,Replicon RNA log drop,genotype 1b replicon RNA,−1.4 log
same,Compound concentration able to induce replicon RNA 1-1.5 log drop in a 6 day assay,"genotype 1b replicon RNA; genotype 1b replicon cells, 6 days",0.004 nM
same,Replicon RNA log drop,"genotype 1b replicon RNA; single compound at the listed concentration, 6 days, relative to DMSO control (Table XIV)",−1.4 log
same,Uncured colony number,[21],634
same,EC50,HCV genotype 1a replicon [22],0.032 nM
same,Interaction,HCV genotype 1a replicon [23]; in combination with Compound 4,Additivity (Additivity: ≤25 and >−25 nM^2%)
same,Antagonism Volume,HCV genotype 1a replicon [23]; [26],−7 ± 7 nM^2%
same,Synergy Volume,HCV genotype 1a replicon [23]; [26],19 ± 17 nM^2%
same,Interaction (cytotoxicity),[24]; in combination with Compound 4,Additivity (Additivity: ≤25 and >−25 nM^2%)
same,Antagonism Volume (cytotoxicity),[24]; [26],0 ± 0 nM^2%
same,Synergy Volume (cytotoxicity),[24]; [26],8 ± 4 nM^2%
same,CC50 at 3 days,[25],> 44400 nM
